Assay [1] has as its target T1, Adrenergic receptor alpha-1 (Homo sapiens, UniProt P35348+P25100+P35368).
T1 sequence (P35348 whole entry): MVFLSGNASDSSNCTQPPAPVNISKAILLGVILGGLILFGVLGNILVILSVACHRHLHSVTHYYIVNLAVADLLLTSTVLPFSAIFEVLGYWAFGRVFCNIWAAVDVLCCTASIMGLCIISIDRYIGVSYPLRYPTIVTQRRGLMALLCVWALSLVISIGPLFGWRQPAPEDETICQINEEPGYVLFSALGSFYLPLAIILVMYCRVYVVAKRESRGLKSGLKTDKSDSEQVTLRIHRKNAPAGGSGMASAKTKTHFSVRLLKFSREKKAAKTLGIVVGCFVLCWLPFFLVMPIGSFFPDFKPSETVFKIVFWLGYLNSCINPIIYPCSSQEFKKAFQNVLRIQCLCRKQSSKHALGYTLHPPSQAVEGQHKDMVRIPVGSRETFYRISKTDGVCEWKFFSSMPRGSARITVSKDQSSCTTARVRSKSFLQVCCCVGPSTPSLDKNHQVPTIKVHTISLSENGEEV
T1 sequence (P25100 whole entry): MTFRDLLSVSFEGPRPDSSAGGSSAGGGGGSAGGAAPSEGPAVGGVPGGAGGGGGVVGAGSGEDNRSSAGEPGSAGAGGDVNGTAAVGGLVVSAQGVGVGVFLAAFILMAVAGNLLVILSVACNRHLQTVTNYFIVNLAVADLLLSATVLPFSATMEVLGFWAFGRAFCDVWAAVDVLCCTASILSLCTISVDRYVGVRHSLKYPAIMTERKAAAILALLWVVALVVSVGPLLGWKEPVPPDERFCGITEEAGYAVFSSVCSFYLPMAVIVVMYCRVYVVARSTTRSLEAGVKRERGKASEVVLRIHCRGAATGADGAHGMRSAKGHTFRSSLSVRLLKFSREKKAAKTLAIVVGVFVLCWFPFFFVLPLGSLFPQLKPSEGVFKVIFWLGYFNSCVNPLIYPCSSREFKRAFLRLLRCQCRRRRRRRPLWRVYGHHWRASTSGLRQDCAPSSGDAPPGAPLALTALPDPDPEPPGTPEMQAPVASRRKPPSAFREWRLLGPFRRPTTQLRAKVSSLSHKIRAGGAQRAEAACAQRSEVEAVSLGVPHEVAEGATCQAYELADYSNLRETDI
T1 sequence (P35368 whole entry): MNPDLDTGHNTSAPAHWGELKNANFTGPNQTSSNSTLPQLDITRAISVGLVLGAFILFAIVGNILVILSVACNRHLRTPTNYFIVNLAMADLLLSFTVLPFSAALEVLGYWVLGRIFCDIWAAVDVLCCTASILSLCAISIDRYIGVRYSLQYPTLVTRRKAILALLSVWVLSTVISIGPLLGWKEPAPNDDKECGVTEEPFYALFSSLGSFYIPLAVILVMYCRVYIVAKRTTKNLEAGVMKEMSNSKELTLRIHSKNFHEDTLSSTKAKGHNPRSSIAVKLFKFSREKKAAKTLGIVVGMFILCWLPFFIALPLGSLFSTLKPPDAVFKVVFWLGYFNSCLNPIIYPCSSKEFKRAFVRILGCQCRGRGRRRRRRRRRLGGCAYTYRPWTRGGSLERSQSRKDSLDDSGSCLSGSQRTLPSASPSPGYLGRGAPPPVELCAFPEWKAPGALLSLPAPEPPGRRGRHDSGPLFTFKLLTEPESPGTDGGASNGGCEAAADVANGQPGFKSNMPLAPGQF
Description: In vitro blocking activity against alpha adrenergic receptor, isolated from rabbit aortic strip. Type of assay: protein assay, Oryctolagus cuniculus.

The target of assay [2] is T2, Adrenergic receptor beta (Homo sapiens, UniProt P08588+P07550+P13945). Description: In vitro blocking activity against beta adrenergic receptor, isolated from guinea pig atria. Type of assay: protein assay.
The species named for the next assay is Cavia porcellus. Description: spasmolytic activity in isolated guinea pig ileum preparation;- log KB; (Bacl2). The assay is classed as functional, organism-based. The note with it: read-out: pA2 (converted).
For assay [3], the system named is Rattus norvegicus. Description: Compound was tested for antihypertensive activity in spontaneously hypertensive rats(SHR)at 50 mg/kg (po) dose after 1 h. The assay is classed as functional.
Assay [4] relates to Rattus norvegicus. Description: Compound was tested for antihypertensive activity n spontaneously hypertensive rats(SHR),at 50 mg/kg (po) dose after 4 h. The assay is classed as functional.
The species named for another assay is Oryctolagus cuniculus. Description: (§1) Ratio of pA2 for beta-adrenergic receptor to that of alpha-adrenergic receptor.
For assay [5], the system named is Rattus norvegicus. Description: Antihypertensive activity in spontaneously hypertensive rats(SHR) at 50 mg/kg peroral dose after 1 h, expressed as decrease in systolic blood pressure. Type of assay: functional, Artery. The note with it: route oral.
The test system of assay [6] is Rattus norvegicus. Description: Antihypertensive activity in spontaneously hypertensive rats(SHR) at 50 mg/kg peroral dose after 4 h, expressed as decrease in systolic blood pressure. The assay is classed as functional, Artery. The note with it: route oral.
Assay [7] has as its target Beta-1 adrenergic receptor (Homo sapiens) (UniProt P08588). The note with it: Canis lupus familiaris.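 Further: anesthetized dogs dosed intravenously, sympatholytic action measured as inhibition of the chronotropic response to isoproterenol.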
Description: In vivo sympatholytic activity (isoproterenol-induced chronotropy) at beta 1-adrenergic receptor in anesthetized dog, iv
Assay [8] concerns the target Beta-2 adrenergic receptor (Canis lupus familiaris) (UniProt P54833).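 Further: Beta-2 blockade of isoproterenol-induced vasodepression in anesthetized dogs, given intravenously.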
Description: In vivo sympatholytic activity (isoproterenol-induced vasodepression) at beta 2-adrenergic receptor in anesthetized dog, iv
For assay [9], the target named is Adrenergic receptor alpha (Homo sapiens) (UniProt P35348+P08913+P18825+P25100+P35368+P18089). The note with it: Canis lupus familiaris.
Description: In vivo sympatholytic activity (phenylephrine-induced vasopressor response) at alpha-adrenergic receptor in anesthetized dog, iv
Assay [10] has as its target T1, Adrenergic receptor alpha-1. Description: Compound was tested in vitro for Alpha adrenergic receptor blocking activity in the isolated rabbit aortic strip preparation; - log KB. Further details: species or system Oryctolagus cuniculus. The note with it: target entry is the homologue from another species.
Assay [11] concerns the target T2, Adrenergic receptor beta. The description is as §1. Type of assay: protein assay. The note with it: Cavia porcellus.

Chain of Beta-2 adrenergic receptor (Canis lupus familiaris) (P54833 whole entry, looked up): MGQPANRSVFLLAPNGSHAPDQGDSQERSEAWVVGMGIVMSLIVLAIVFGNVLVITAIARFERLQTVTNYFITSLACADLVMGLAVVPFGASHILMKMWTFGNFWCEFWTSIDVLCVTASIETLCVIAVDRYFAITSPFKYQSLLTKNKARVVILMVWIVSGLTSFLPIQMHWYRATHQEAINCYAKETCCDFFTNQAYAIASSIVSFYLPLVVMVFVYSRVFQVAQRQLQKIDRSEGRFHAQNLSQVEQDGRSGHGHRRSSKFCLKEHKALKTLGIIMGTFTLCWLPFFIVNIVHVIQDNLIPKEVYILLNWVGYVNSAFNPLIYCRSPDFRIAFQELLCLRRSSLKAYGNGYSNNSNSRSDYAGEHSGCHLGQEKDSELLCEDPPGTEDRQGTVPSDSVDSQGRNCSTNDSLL
Chain of Beta-1 adrenergic receptor (Homo sapiens) (P08588 whole entry, looked up): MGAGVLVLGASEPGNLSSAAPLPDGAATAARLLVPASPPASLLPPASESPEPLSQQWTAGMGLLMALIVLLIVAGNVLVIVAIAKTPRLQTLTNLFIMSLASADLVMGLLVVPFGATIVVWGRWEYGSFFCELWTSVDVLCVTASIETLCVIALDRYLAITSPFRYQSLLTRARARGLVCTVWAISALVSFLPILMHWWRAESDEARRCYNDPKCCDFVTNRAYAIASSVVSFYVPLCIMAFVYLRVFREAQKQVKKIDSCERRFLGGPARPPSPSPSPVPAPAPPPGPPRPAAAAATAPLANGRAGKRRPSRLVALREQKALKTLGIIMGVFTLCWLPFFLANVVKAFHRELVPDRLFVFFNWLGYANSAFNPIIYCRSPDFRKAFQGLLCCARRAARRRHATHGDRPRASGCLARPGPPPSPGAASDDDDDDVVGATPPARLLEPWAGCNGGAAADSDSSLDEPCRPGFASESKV

One may read the pA2 as the negative logarithm of the molar antagonist concentration that doubles the agonist concentration needed for the same response. Lower therefore signals a weaker antagonist. Consider `CCCCCCCCCCCCNC(=O)c1cc(C(O)CNC(C)CCc2ccc3c(c2)OCO3)ccc1O.Cl` (configuration not stated), for which the values for the pA2 (in assay [1]; at Adrenergic receptor beta [2]) were less than 5 and 4.53, respectively. For the same compound, in the assay listed under Cavia porcellus, the Kb is less than 63100 nM. Besides, the values for the BP decrease in the assay with Rattus norvegicus [3] and in the assay on Rattus norvegicus [4] were 16 mmHg and 18 mmHg, respectively.

Consider `Cc1ccccc1N1CCN(CC(O)c2ccc(O)c(C(N)=O)c2)CC1.Cl.Cl` (configuration not stated), for which the pA2 in assay [1] is on record as 7.57; at Adrenergic receptor beta [2], 6.7. Besides, the Ratio in the assay filed under Oryctolagus cuniculus amounted to 0.1. In addition, the Kb in the assay listed under Cavia porcellus was 1860 nM. The BP decrease in the assay with Rattus norvegicus [5] came to 48 mmHg; in the assay with Rattus norvegicus [6], 37 mmHg. Also, the DR10 in assay [7] is 15.3 mg/kg; in assay [8], more than 10 mg/kg; in assay [9] it was 1.09 mg/kg.

For `COC(=O)c1cc(C(O)CNC(C)CCc2ccc3c(c2)OCO3)ccc1O.Cl` (configuration not stated), the pA2 in assay [1] was found to be 5.73; at Adrenergic receptor beta [2], 7.62. Moreover, in the assay listed under Oryctolagus cuniculus, the Ratio was found to be 78. Further, the Kb in the assay listed under Cavia porcellus is 126 nM. Besides, the BP decrease in the assay with Rattus norvegicus [5] is 56 mmHg; in the assay on Rattus norvegicus [6] it was 53 mmHg. Besides, the values for the DR10 in assay [7], in assay [8] and in assay [9] were 2.19 mg/kg, 5.46 mg/kg and 5.82 mg/kg, respectively.

Regarding `CNC(=O)c1cc(C(O)CNC(C)CCc2ccc3c(c2)OCO3)ccc1O.Cl` (configuration not stated), the pA2 in assay [1] was determined as 5.9; at Adrenergic receptor beta [2], 6.69. In addition, the Ratio in the assay filed under Oryctolagus cuniculus amounted to 6.2. Further, in the assay listed under Cavia porcellus, the Kb was 380 nM. In addition, the BP decrease worked out at 84 mmHg in the assay on Rattus norvegicus [5] and 91 mmHg in the assay with Rattus norvegicus [6]. Further, the results for the DR10 in [7], in assay [8] and in assay [9] were 8.63 mg/kg, 3.61 mg/kg and 5.44 mg/kg, respectively.

Turning to `CC(CCc1ccc2c(c1)OCO2)NCC(O)c1ccc(O)c(C(N)=O)c1.Cl` (configuration not stated) [MEDROXALOL HYDROCHLORIDE], the pA2 was 6.08 in assay [10] and 7.82 on Adrenergic receptor beta [2]. Moreover, in the assay listed under Oryctolagus cuniculus, the Ratio came to 55. In the assay filed under Cavia porcellus, the Kb is 2340 nM. Further, the BP decrease in the assay with Rattus norvegicus [5] amounted to 88 mmHg; in the assay on Rattus norvegicus [6] it was 90 mmHg. For the same compound, the DR10 in assay [7] is 0.84 mg/kg; in [8], 1.17 mg/kg; in [9], 3.86 mg/kg.

Take `Cc1ccc(N(CC2=NCCN2)c2cccc(O)c2)cc1.Cl` [PHENTOLAMINE HYDROCHLORIDE]: the BP decrease was found to be 62 mmHg in the assay on Rattus norvegicus [3] and 60 mmHg in the assay with Rattus norvegicus [4].

For the compound `CC(C)NC(=O)c1cc(C(O)CNC(C)CCc2ccc3c(c2)OCO3)ccc1O.Cl` (configuration not stated), the pA2 was found to be 5.85 in assay [1] and 5.88 on Adrenergic receptor beta [2]. Further, the Ratio at Adrenergic receptor beta [11] came to 1.1. For the same compound, the Kb in the assay listed under Cavia porcellus was 417 nM. Moreover, the results for the BP decrease in the assay with Rattus norvegicus [5] and with Rattus norvegicus [6] were 48 mmHg and 10 mmHg, respectively. In addition, the DR10 in assay [7] stood at 22.5 mg/kg; in assay [8], 14.8 mg/kg; in assay [9], 4.84 mg/kg.

For the origin of these results see ChEMBL document CHEMBL1121801, “Salicylamide derivatives related to medroxalol with alpha- and beta-adrenergic antagonist and antihypertension activity” (J Med Chem, 1981).
